According to ChEMBL document CHEMBL3286360, “Tuning the antimicrobial pharmacophore to enable discovery of short lipopeptides with multiple modes of action” (Eur J Med Chem, 2014):
≈ marks a conversion by molar mass, not a printed value. Calls of active or inactive are those of the source. The calls are words filed in the database; no cut-off is given here. Where a SMILES comes first, the peptide text is derived from it. The star is where a group is joined. Decanoyl = CCCCCCCCCC(=O)*

Experiments:
[1] = Cytotoxicity against human TZM-b1 cells assessed as cell death at 500 ug/ml after 48 hrs by MTT assay; type: cell-based; conditions: tzm-b1, 48 h
Staphylococcus aureus [2] = test: Antimicrobial activity against Staphylococcus aureus ATCC 12600 after 17 to 20 hrs by serial dilution method; type: functional
Escherichia coli [3] = test: Antimicrobial activity against Escherichia coli ATCC 25922 after 17 to 20 hrs by serial dilution method; type: functional
Staphylococcus aureus [4] = test: Antimicrobial activity against Staphylococcus aureus ATCC 12600 assessed as disruption of membrane integrity measured as PI dye influx at 50 ug/ml after 20 mins by fluorescence microscopy; type: functional, organism-based
Escherichia coli [5] = test: Antimicrobial activity against Escherichia coli ATCC 25922 assessed as disruption of membrane integrity measured as PI dye influx at 50 ug/ml after 20 mins by fluorescence microscopy; type: functional, organism-based
Priestia megaterium = test: Binding affinity to Bacillus megaterium pHis1525 DNA at 25 to 50 ug/ml after 30 mins by agarose gel electrophoresis
[6] = Cytotoxicity against human TZM-b1 cells assessed as cell death at 125 ug/ml after 48 hrs by MTT assay; type: cell-based; conditions: tzm-b1, 48 h
[7] = Cytotoxicity against human TZM-b1 cells assessed as cell death after 48 hrs by MTT assay; type: cell-based; conditions: tzm-b1, 48 h
[8] = Cytotoxicity against human TZM-b1 cells assessed as survival at 40 ug/ml after 2 hrs by flow cytometry; type: cell-based; conditions: read-out: Survival
Staphylococcus aureus [9] = test: Antimicrobial activity against Staphylococcus aureus ATCC 12600 assessed as cell death at 40 ug/ml after 1 hr by flow cytometry; type: functional
[10] = Cytotoxicity against human TZM-b1 cells assessed as cell death at 40 ug/ml after 1 hr by flow cytometry (reference value: 0 to 0.20 %); type: cell-based; conditions: tzm-b1, 1 h
[11] = Cytotoxicity against human TZM-b1 cells assessed as cell death at 40 ug/ml after 2 hrs by flow cytometry (reference value: 0 to 0.20 %); type: cell-based; conditions: tzm-b1, 2 h
Candida albicans = test: Antimicrobial activity against Candida albicans ATCC 14053 after 17 to 20 hrs by serial dilution method; type: functional
[12] = Cytotoxicity in human erythrocytes assessed as hemolysis at 125 ug/ml after 1 hr relative to control; type: cell-based, Erythrocyte; conditions: read-out: Activity
Staphylococcus aureus [13] = test: Antimicrobial activity against Staphylococcus aureus ATCC 12600 assessed as disruption of membrane integrity measured as PI dye influx at 250 ug/ml after 20 mins by fluorescence microscopy; type: functional, organism-based
Escherichia coli [14] = test: Antimicrobial activity against Escherichia coli ATCC 25922 assessed as disruption of membrane integrity measured as PI dye influx at 250 ug/ml after 20 mins by fluorescence microscopy; type: functional
[15] = Cytotoxicity in human erythrocytes assessed as hemolysis at 250 ug/ml after 1 hr relative to control; type: cell-based, Erythrocyte; conditions: read-out: Activity

Compound	Activity [1]	MIC (Staphylococcus aureus [2]) [µg/mL]	MIC (Escherichia coli [3]) [µg/mL]	Activity (Staphylococcus aureus [4])	Activity (Escherichia coli [5])	Activity (Priestia megaterium)	Activity [6]	Activity [7]	viability at 2 h, 40 ug/ml [8] [%]	Activity (Staphylococcus aureus [9]) [%]	Activity [10] [%]	Activity [11] [%]	MIC (Candida albicans) [µg/mL]	hemolysis at 1 h, 125 ug/ml [12] [%]	Activity (Staphylococcus aureus [13])	CC50 (Escherichia coli [14]; ATCC 25922, 20 min) [µg/mL]	hemolysis at 1 h, 250 ug/ml [15] [%]	Activity (Escherichia coli [14])
H-RKWWK-NH2	Non-toxic	62.5	> 62.5	–	–	–	–	–	–	–	–	–	–	–	–	–	–	–
CCCCCCCCCC(=O)N[C@@H](CCCNC(=N)N)C(=O)N[C@@H](CCCCN)C(=O)N[C@@H](Cc1c[nH]c2ccccc12)C(=O)N[C@@H](Cc1c[nH]c2ccccc12)C(=O)N[C@@H](CCCCN)C(N)=O (Decanoyl-RKWWK-NH2)	–	3.9 (≈ 4.08 µM)	3.9 (≈ 4.08 µM)	Active	Active	Active	Toxic	Toxic	> 99	>95	0.072	0.128	15.6 (≈ 16.3 µM)	< 10	Active	115 (≈ 120 µM)	–	–
CCCCCCCCCC(=O)N[C@@H](CCCNC(=N)N)C(=O)N[C@H](C(=O)N[C@@H](CCCCN)C(=O)N[C@@H](Cc1c[nH]c2ccccc12)C(=O)N[C@@H](CCCCN)C(N)=O)[C@@H](C)CC (Decanoyl-RIKWK-NH2)	–	7.8 (≈ 8.83 µM)	15.6 (≈ 17.7 µM)	Active	Active	inactive	–	–	> 99	>95	0.074	0.083	> 62.5	–	Active	–	< 10	Active
